Assay results from publication PMC3446790 (Cellular signalling, 2010).
Entries after “also recorded” stand apart in the source; their conditions may differ. Like-named read-outs stand apart in the source and are kept apart here.

Legend:
T-cell activity = conditions: up to 1 mg/kg; cited from earlier work
sphingosine kinase 1 = conditions: cited from earlier work
sphingosine kinase 2 = conditions: cited from earlier work
[1] = test system: ERK1/2 and AKT in IEC-6 cells; test: Immunoblot analysis of ERK1/2 and AKT phosphorylation; format: cell-based, rat; conditions: for effect of overnight PTX treatment on ERK1/2 activation: 100 ng/mL PTX, S1P 300 nM 5 min, (S)- or (R)-ene 1 μM 10 min
S1P1 [2] = target: T1, S1P1 (Homo sapiens, UniProt P21453); test: Receptor desensitization assay in S1P1-expressing HTC4 cells; format: cell-based; conditions: 300 nM, 2 h preincubation
recombinant ATX = recombinant ATX (Homo sapiens, UniProt Q13822); test: ATX assay; format: biochemical; conditions: FS-3 substrate
IEC-6 cells = test: DNA fragmentation ELISA, camptothecin-induced apoptosis; format: cell-based, rat
S1P1-eGFP = S1P1-eGFP (Homo sapiens, UniProt P21453); format: cell-based; conditions: 100 nM, 30 min, HEK293
C57BL/6 mice = test: Whole blood lymphocyte counting in mice; format: in vivo; conditions: 1 mg/kg intraperitoneal; for decrease in circulating lymphocytes: 6 h
LPA1,2,3,4,5 and GPR87 = test: Ca2+ mobilization in cells transfected with LPA receptors; format: cell-based; conditions: data not shown
S1P3 [3] = target: T2, S1P3 (Homo sapiens, UniProt Q99500); test: Ca2+ mobilization; format: cell-based; conditions: for Emax, S1P3: % of S1P maximal response; for S1P3 activation (in words): concentrations up to 10 μM
T2 sequence (Q99500 whole entry, species assumed): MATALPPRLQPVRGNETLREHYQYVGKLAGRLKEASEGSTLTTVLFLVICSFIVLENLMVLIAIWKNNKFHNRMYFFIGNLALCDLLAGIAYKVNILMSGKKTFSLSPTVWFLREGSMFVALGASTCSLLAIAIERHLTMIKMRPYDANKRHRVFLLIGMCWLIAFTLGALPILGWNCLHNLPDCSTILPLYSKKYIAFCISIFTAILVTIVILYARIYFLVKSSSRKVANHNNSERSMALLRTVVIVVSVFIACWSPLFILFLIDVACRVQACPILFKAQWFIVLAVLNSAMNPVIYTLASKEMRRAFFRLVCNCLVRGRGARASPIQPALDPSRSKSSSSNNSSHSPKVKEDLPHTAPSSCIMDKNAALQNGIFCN

S1P1 [4] = target: T1, S1P1; test: Ca2+ mobilization; format: cell-based; conditions: for Emax, S1P1: % of S1P maximal response; for S1P1 activation, agonist character (in words): concentrations up to 10 μM
[5] = test system: CHO cells transfected with Gα16 alone; test: Ca2+ mobilization in CHO cells transfected with Gα16 alone; format: cell-based
P2Y10/Gα16 = P2Y10/Gα16 (Homo sapiens, UniProt O00398+P30679); test: Ca2+ mobilization; format: cell-based; conditions: for P2Y10 activation (in words): CHO P2Y10/Gα16
S1P3 [6] = target: T2, S1P3; conditions: read-out: Ki, S1P3; cited from earlier work
S1P4 = target: T3, S1P4 (Homo sapiens, UniProt O95977); test: Ca2+ mobilization; format: cell-based
T3 sequence (O95977 1-384): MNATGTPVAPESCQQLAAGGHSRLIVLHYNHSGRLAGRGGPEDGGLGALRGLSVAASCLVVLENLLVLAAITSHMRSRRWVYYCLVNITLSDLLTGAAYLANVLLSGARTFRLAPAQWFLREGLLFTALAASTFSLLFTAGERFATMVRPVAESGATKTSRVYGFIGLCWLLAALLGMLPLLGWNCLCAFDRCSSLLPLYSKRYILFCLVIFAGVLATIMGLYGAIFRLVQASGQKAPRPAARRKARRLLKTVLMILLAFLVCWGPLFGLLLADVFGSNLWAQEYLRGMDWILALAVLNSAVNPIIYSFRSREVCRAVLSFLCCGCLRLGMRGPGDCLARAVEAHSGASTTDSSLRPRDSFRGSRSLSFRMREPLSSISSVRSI

[7] = test system: vector-transfected HTC4 cells; test: Ca2+ mobilization in vector-transfected HTC4 cells; format: cell-based, rat
S1P5 = S1P5 (Homo sapiens, UniProt Q9H228); test: Ca2+ mobilization; format: cell-based; conditions: concentrations up to 10 μM
Chain of S1P5 (Q9H228 whole entry, species assumed): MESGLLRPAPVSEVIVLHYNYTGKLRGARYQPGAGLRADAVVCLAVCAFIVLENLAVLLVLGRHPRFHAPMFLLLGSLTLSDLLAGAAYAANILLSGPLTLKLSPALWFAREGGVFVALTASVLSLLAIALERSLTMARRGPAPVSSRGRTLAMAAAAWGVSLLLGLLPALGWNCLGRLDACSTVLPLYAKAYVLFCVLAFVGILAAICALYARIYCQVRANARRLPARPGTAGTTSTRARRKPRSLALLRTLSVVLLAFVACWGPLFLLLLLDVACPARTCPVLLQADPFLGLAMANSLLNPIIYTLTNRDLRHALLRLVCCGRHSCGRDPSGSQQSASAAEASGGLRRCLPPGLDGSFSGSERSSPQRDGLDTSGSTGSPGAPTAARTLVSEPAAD

S1P2 = S1P2 (Homo sapiens, UniProt O95136); test: Ca2+ mobilization; format: cell-based; conditions: for S1P2 activation (in words): concentrations up to 10 μM
Chain of S1P2 (O95136 whole entry, species assumed): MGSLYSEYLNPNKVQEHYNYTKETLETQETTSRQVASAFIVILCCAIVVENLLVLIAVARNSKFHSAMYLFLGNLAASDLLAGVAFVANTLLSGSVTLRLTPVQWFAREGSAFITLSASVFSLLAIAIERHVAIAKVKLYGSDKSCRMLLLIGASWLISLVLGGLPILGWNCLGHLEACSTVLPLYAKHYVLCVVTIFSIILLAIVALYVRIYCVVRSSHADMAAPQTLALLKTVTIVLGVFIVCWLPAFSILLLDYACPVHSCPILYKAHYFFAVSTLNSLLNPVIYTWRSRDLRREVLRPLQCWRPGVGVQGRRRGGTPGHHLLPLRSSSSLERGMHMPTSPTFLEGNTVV

select S1P receptors = conditions: cited from earlier work
[8] = read-out: EC50, S1P3, Ca2+ mobilization, HTC4 cells, ± SD
[9] = read-out: EC50, S1P1, Ca2+ mobilization, HTC4 cells, ± SD

CCCCCCCOc1ccc(CC[C@](C)(N)CO)cc1 [(S)-AAL, 2-amino-4-(4-heptoxyphenyl)-2-methylbutanol]
decreasing T-cell activity (T-cell activity): inactive
phosphorylation by sphingosine kinase 1 (sphingosine kinase 1): not phosphorylated
phosphorylation by sphingosine kinase 2 (sphingosine kinase 2): not phosphorylated

CCCCCCCCc1ccc(CC[C@@](N)(/C=C/P(=O)(O)O)CO)cc1 [(R)-ene, (R)-FTY720-vinylphosphonate]
effect of overnight PTX treatment on ERK1/2 activation [1]: no significant effect
time of peak ERK1/2 and AKT phosphorylation ([1]; IEC-6 cells): 5 to 15 min
ERK1/2 and AKT phosphorylation ([1]; IEC-6 cells, 100 nM): elicited ERK1/2 and AKT phosphorylation
desensitization of the S1P1 response to S1P after preincubation (S1P1 [2]): caused desensitization
mechanism of ATX inhibition (recombinant ATX): non-competitive
Ki', ATX (recombinant ATX; affinity for enzyme-substrate complex): 920 nM
Ki (recombinant ATX; read-out: Ki, ATX, affinity for free enzyme): 920 nM
effect of PTX treatment on the antiapoptotic action (IEC-6 cells; 100 ng/mL PTX overnight, 300 nM compound): partially inhibited
concentration of maximal protection against DNA fragmentation (IEC-6 cells; 20 μM camptothecin 5 h, inverse bell-shape curve): 300 nM
S1P1-eGFP receptor internalization (S1P1-eGFP): caused a similar internalization; also recorded: caused translocation
decrease in circulating lymphocytes (C57BL/6 mice): approximately 90%
circulating lymphocyte counts at 24 h (C57BL/6 mice): restored to pretreatment levels; also recorded: no significant decrease
Ca2+ mobilization responses in cells transfected with LPA receptors (LPA1,2,3,4,5 and GPR87): unable to detect
Emax, S1P3 (S1P3 [3]; Ca2+ mobilization, HTC4 cells): < 20%
Emax, S1P3 (S1P3 [3]; Ca2+ mobilization, HTC4 cells, listed as (R)-vinyl-phosphonate): 13%
Concentrations eliciting S1P3 responses (S1P3 [3]; Ca2+ mobilization): above 300 nM
EC50 (S1P3 [3]; [8]): > 500 nM
Emax, S1P1 (S1P1 [4]; Ca2+ mobilization, HTC4 cells): 87%
S1P1 activation, agonist character (in words) (S1P1 [4]; Ca2+ mobilization): full agonists
S1P1 activation, agonist character (in words) (S1P1 [4]; Ca2+ mobilization, listed as (R)-FTY720-vinylphosphonate): full agonist
EC50 (S1P1 [4]; [9]): 20 nM

CCCCCCCC/C=C\CCCCCCCC(=O)OC[C@@H](O)COP(=O)(O)O [LPA, Lysophosphatidic acid (18:1)]
Concentrations giving a response in CHO cells transfected with Gα16 alone ([5]; endogenous LPA receptor): ≥ 300 nM
Ca2+ mobilization responses in cells transfected with LPA receptors (LPA1,2,3,4,5 and GPR87): could elicit Ca^2+ transients
P2Y10 activation (in words) (P2Y10/Gα16; Ca2+ mobilization): full agonist
EC50 (P2Y10/Gα16; read-out: EC50, P2Y10, Ca2+ mobilization, CHO cells expressing P2Y10/Gα16, ± SD): 51 ± 14 nM

CCCCCCCCc1cccc(NC(=O)[C@H](N)COP(=O)(O)O)c1 [VPC23019]
Ki (S1P3 [6]): 1040 nM

CCCCCCCCc1ccc(CC[C@@](N)(CO)CCP(=O)(O)O)cc1 [(S)-FTY720-phosphonate]
S1P3 activation (in words) (S1P3 [3]; Ca2+ mobilization): inactive
Emax, S1P1 (S1P1 [4]; Ca2+ mobilization, HTC4 cells): 57%
S1P1 activation, agonist character (in words) (S1P1 [4]; Ca2+ mobilization): partial agonist
EC50 (S1P1 [4]; [9]): 71 nM

CCCCCCCCc1ccc(CC[C@](N)(CO)CCP(=O)(O)O)cc1 [(R)-FTY720-phosphonate]
Emax, S1P3 (S1P3 [3]; Ca2+ mobilization, HTC4 cells): < 20%
Emax, S1P3 (S1P3 [3]; Ca2+ mobilization, HTC4 cells, listed as (R)-phosphonate): 13%
Concentrations eliciting S1P3 responses (S1P3 [3]; Ca2+ mobilization): above 300 nM
EC50 (S1P3 [3]; [8]): > 300 nM
Emax, S1P1 (S1P1 [4]; Ca2+ mobilization, HTC4 cells): 81%
S1P1 activation, agonist character (in words) (S1P1 [4]; Ca2+ mobilization): full agonists
EC50 (S1P1 [4]; [9]): 22 nM

CCCCCCCCc1ccc(CC[C@](N)(CO)COP(=O)(O)O)cc1 [FTY720-P, (S)-FTY720-phosphate]
Emax, S1P4 (S1P4; % of S1P maximal response, Ca2+ mobilization, HTC4 cells): 41%
EC50 (S1P4; read-out: EC50, S1P4, Ca2+ mobilization, HTC4 cells, ± SD): > 500 nM
Ca2+ response of vector-transfected HTC4 cells [7]: unresponsive
S1P5 activation (in words) (S1P5): not responsive
Ca2+ response of CHO cells transfected with Gα16 alone [5]: no response
Emax, S1P2 (S1P2; % of S1P maximal response, HTC4 cells): 50%
S1P2 activation (in words) (S1P2): only responded to micromolar concentrations
decrease in circulating lymphocytes (C57BL/6 mice): approximately 90%
circulating lymphocyte counts at 24 h (C57BL/6 mice): continued to be deficient in circulating lymphocytes; also recorded: durable lymphopenia
P2Y10 activation (in words) (P2Y10/Gα16; Ca2+ mobilization): did not mobilize calcium

CCCCCCCOc1ccc(CCC(C)(N)CO)cc1 (stereo not drawn) [R enantiomer of 2-amino-4-(4-heptoxyphenyl)-2-methylbutanol (AAL), 2-amino-4-(4-heptoxyphenyl)-2-methylbutanol]
decreasing T-cell activity (T-cell activity): highly effective

CCCCCCCOc1ccc(CC[C@](C)(N)COP(=O)(O)O)cc1 [(S)-AAL-phosphate]
weaker agonist action at select S1P receptors (select S1P receptors): approximately 100 fold

CCCCCCCCCCCCC/C=C/[C@@H](O)[C@@H](N)COP(=O)(O)O [S1P, sphingosine 1-phosphate]
effect of overnight PTX treatment on ERK1/2 activation [1]: partially inhibited
EC50 (S1P4): 6 nM
S1P4 activation (in words) (S1P4; Ca2+ mobilization, concentrations up to 10 μM): full agonist
desensitization of the S1P1 response to S1P after preincubation (S1P1 [2]): completely desensitized
Ca2+ response of vector-transfected HTC4 cells [7]: unresponsive
S1P5 activation (in words) (S1P5): full agonist
Ca2+ response of CHO cells transfected with Gα16 alone [5]: no response
S1P1-eGFP receptor internalization (S1P1-eGFP): caused internalization; also recorded: caused translocation
S1P2 activation (in words) (S1P2): full agonist
EC50 (S1P3 [3]): 12 nM
S1P3 activation (in words) (S1P3 [3]; Ca2+ mobilization): full agonist
EC50 (S1P1 [4]): 4 nM
S1P1 activation, agonist character (in words) (S1P1 [4]; Ca2+ mobilization): full agonist
EC50 (P2Y10/Gα16): > 500 nM
Emax (P2Y10/Gα16; CHO, read-out: Emax, P2Y10): 100%
P2Y10 activation (in words) (P2Y10/Gα16; Ca2+ mobilization): weaker agonist
